{"source": "paper PMC9709406", "about": "(Frontiers in Pharmacology, 2022)", "key": {"KYSE410TR cells": {"system": "KYSE410TR cells", "assay": "MTT assay, taxol-resistant KYSE410TR", "assay_type": "cell-based, human", "settings": "for blank-corrected absorbance 490 nm relative to control (fraction) / inhibition (1 minus fraction of control): 410TR", "source_text": "(§1) The human cancer cells (H1650, H1975, KYSE70, KYSE410 and KYSE450) were purchased from the Type Culture Collection of the Chinese Academy of Sciences (Shanghai, China). The human immortalized normal esophageal epithelial cell line SHEE was donated by Dr. Enmin Li from the Laboratory of Tumor Pathology (Shantou University Medical College, Shantou, Guangdong, China). Drug-resistant cells (H1650TR, H1975OR, KYSE70TR, KYSE410TR and KYSE450TR) were induced by China-US (Henan) Hormel Cancer Institute. The cellswere cultured in RPMI-1640 complete growth medium containing 100 U/mL penicillin-streptomycin and 10% FBS. Based on the above medium formula, 100 nm/L paclitaxel was added in taxol-resistant cells, 100 nm/L gefitinib was added in gefitinib-resistant cells. The cells were incubated at 37 °C in an atmosphere containing 5% of CO2. The compounds were dissolved in DMSO to make a 50 mM stock solution and were diluted to the concentration of working solutions with complete growth medium before administration.\n(§2) Cells were seeded in 96-well plates with 2,200–2,500 cells/well in100 μL. One day after seeding, test compounds with the concentration between 0 and 50 μM were added with 0.1% DMSO as control. Five multiple wells for each concentration. […] The absorbance at 490 nm was measured using a microplate reader (Thermo)."}, "KYSE450 cells [1]": {"system": "KYSE450 cells", "assay": "Annexin V/PI flow cytometry for apoptosis, KYSE450", "assay_type": "cell-based, human", "settings": "48 h", "protocol": "(§3) Cell-apoptosis analysis was carried out by flow cytometry using the Annexin V/PI apoptosis methods. […] Cells were harvested and incubated with 250 μL of 1 × Annexin V binding buffer containing 5 μL PI and 5 μL FITC Annexin V (final concentration 1.8 μg/ml, Biolegend (cat: 640945) for 15 min at room temperature in dark. 200 µL of 1 × binding buffer was added for flow cytometry analysis (BD FACSCalibur™ Flow Cytometer)."}, "KYSE410 cells": {"system": "KYSE410 cells", "assay": "MTT assay, KYSE410", "assay_type": "cell-based, human", "settings": "for IC50: Homo sapiens, KYSE-410", "method_in_brief": "(§4)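 MTT read-out at 490 nm after 48 h treatment with 0–50 μM compound, applied one day after seeding 2,200–2,500 cells/well; five wells per concentration, 0.1% DMSO as control. Culture in RPMI-1640/10% FBS, with 100 nm/L paclitaxel kept in the taxol-resistant lines.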"}, "KYSE70TR cells": {"system": "KYSE70TR cells", "assay": "MTT assay, taxol-resistant KYSE70TR", "assay_type": "cell-based, human", "settings": "for blank-corrected absorbance 490 nm relative to control (fraction) / inhibition (1 minus fraction of control): 70TR", "source_text": "as §1, §2"}, "KYSE450 cells [2]": {"system": "KYSE450 cells", "assay": "MTT assay, KYSE450", "assay_type": "cell-based, human", "settings": "for IC50: Homo sapiens, KYSE-450", "method_in_brief": "as §4"}, "KYSE450TR cells": {"system": "KYSE450TR cells", "assay": "Annexin V/PI flow cytometry for apoptosis, KYSE450TR", "assay_type": "cell-based, human", "settings": "48 h", "protocol": "as §3"}, "[3]": {"system": "EGFR-TK pathway in KYSE450 cells", "assay": "Western blot of EGFR-TK pathway proteins, KYSE450", "assay_type": "cell-based, human", "settings": "KYSE450, 3 μM", "protocol": "(§5) Cells treated with 1% DMSO were used as control. Then the cells were harvested and total proteins were extracted. Total proteins were separated by 12% SDS polyacrylamide gel electrophoresis and transferred onto PVDF membranes. The membrane was blocked for 1 h, then incubated overnight with a 1 : 1000 dilution of anti-EGFR, anti-p-EGFR (Tyr1068/Tyr1086), anti-Erk1/2, and anti-p-Erk1/2 (Thr202/Tyr204), or 1 : 3000 dilution of anti-GAPDH primary antibody at 4°C. 1 : 3000 anti-rabbit secondary antibodies incubated for 2 h at room temperature. Protein bands were developed by chemiluminescence."}, "KYSE70 cells": {"system": "KYSE70 cells", "assay": "MTT assay, KYSE70", "assay_type": "cell-based, human", "method_in_brief": "as §4"}, "[4]": {"system": "EGFR-TK pathway in KYSE450TR cells", "assay": "Western blot of EGFR-TK pathway proteins, KYSE450TR", "assay_type": "cell-based, human", "settings": "3 μM, vs control", "protocol": "as §5"}, "H1650TR cells": {"system": "H1650TR cells", "assay": "MTT assay, taxol-resistant H1650TR", "assay_type": "cell-based", "settings": "Homo sapiens, NCI-H1650, 48 h, value in parentheses in H1650 column", "source_text": "as §1\nCells were seeded in 96-well plates with 2,200–2,500 cells/well in100 μL. One day after seeding, test compounds with the concentration between 0 and 50 μM were added with 0.1% DMSO as control. Five multiple wells for each concentration. After 48 h, MTT was added and incubated in the plate for 1–4 h in the incubator. The absorbance at 490 nm was measured using a microplate reader (Thermo)."}, "H1975OR cells": {"system": "H1975OR cells", "assay": "MTT assay, osimertinib-resistant H1975OR", "assay_type": "cell-based", "settings": "Homo sapiens, NCI-H1975, 48 h, osimertinib-resistant H1975OR, value in parentheses in H1975 column, read-out: IC50 48 h H1975OR (data in parentheses) (converted)", "source_text": "as §1, §2"}}, "note": "Where two headings read alike, the source gives them in different places."}
{"smiles": "FC(F)(F)c1ccc(-n2cc(-c3cccc(Nc4ncnc5cc6c(cc45)OCCOCCOCCO6)c3)nn2)cc1", "note": "[compound 3l]", "values": [{"measurement": "blank-corrected absorbance 490 nm relative to control (fraction)", "setting": "KYSE410TR cells; concentration 4", "result": 0.5568}, {"measurement": "inhibition (1 minus fraction of control)", "setting": "KYSE410TR cells; concentration 4", "result": 0.4432}, {"measurement": "blank-corrected absorbance 490 nm relative to control (fraction)", "setting": "KYSE410TR cells; concentration 8", "result": 0.3771}, {"measurement": "inhibition (1 minus fraction of control)", "setting": "KYSE410TR cells; concentration 8", "result": 0.6229}, {"measurement": "blank-corrected absorbance 490 nm relative to control (fraction)", "setting": "KYSE410TR cells; concentration 16", "result": 0.2345}, {"measurement": "inhibition (1 minus fraction of control)", "setting": "KYSE410TR cells; concentration 16", "result": 0.7655}, {"measurement": "IC50", "setting": "KYSE410TR cells; Homo sapiens, MTT, 48 h, taxol-resistant KYSE410TR, value in parentheses, read-out: IC50 48 h KYSE410TR (data in parentheses) (converted)", "result": 5.3, "unit": "µM"}, {"measurement": "proportion of apoptotic cells", "setting": "KYSE450 cells [1]; KYSE450, 2 μM", "result": 24.32, "unit": "%"}, {"measurement": "proportion of apoptotic cells", "setting": "KYSE450 cells [1]; KYSE450, 4 μM", "result": 39.89, "unit": "%"}, {"measurement": "IC50", "setting": "KYSE410 cells; KYSE410, MTT, 490 nm, read-out: IC50", "result": 7, "unit": "µM"}, {"measurement": "IC50", "setting": "KYSE410 cells; MTT, 48 h, KYSE410, n = 5, read-out: IC50 48 h KYSE410", "result": "5.94 ± 0.41", "unit": "µM"}, {"measurement": "blank-corrected absorbance 490 nm relative to control (fraction)", "setting": "KYSE410 cells; KYSE410, concentration 3.5", "result": 0.6286}, {"measurement": "inhibition (1 minus fraction of control)", "setting": "KYSE410 cells; KYSE410, concentration 3.5", "result": 0.3714}, {"measurement": "blank-corrected absorbance 490 nm relative to control (fraction)", "setting": "KYSE410 cells; KYSE410, concentration 7", "result": 0.487}, {"measurement": "inhibition (1 minus fraction of control)", "setting": "KYSE410 cells; KYSE410, concentration 7", "result": 0.513}, {"measurement": "blank-corrected absorbance 490 nm relative to control (fraction)", "setting": "KYSE410 cells; KYSE410, concentration 14", "result": 0.3214}, {"measurement": "inhibition (1 minus fraction of control)", "setting": "KYSE410 cells; KYSE410, concentration 14", "result": 0.6786}, {"measurement": "blank-corrected absorbance 490 nm relative to control (fraction)", "setting": "KYSE70TR cells; concentration 3", "result": 0.722}, {"measurement": "inhibition (1 minus fraction of control)", "setting": "KYSE70TR cells; concentration 3", "result": 0.278}, {"measurement": "blank-corrected absorbance 490 nm relative to control (fraction)", "setting": "KYSE70TR cells; concentration 6", "result": 0.41}, {"measurement": "inhibition (1 minus fraction of control)", "setting": "KYSE70TR cells; concentration 6", "result": 0.59}, {"measurement": "blank-corrected absorbance 490 nm relative to control (fraction)", "setting": "KYSE70TR cells; concentration 12", "result": 0.2379}, {"measurement": "inhibition (1 minus fraction of control)", "setting": "KYSE70TR cells; concentration 12", "result": 0.7621}, {"measurement": "IC50", "setting": "KYSE70TR cells; Homo sapiens, MTT, 48 h, taxol-resistant KYSE70TR, value in parentheses, read-out: IC50 48 h KYSE70TR (data in parentheses) (converted)", "result": 5.13, "unit": "µM"}, {"measurement": "IC50", "setting": "KYSE450 cells [2]; KYSE450, MTT, 490 nm, read-out: IC50", "result": 4, "unit": "µM"}, {"measurement": "IC50", "setting": "KYSE450 cells [2]; MTT, 48 h, KYSE450, n = 5, read-out: IC50 48 h KYSE450", "result": "3.4 ± 0.16", "unit": "µM"}, {"measurement": "blank-corrected absorbance 490 nm relative to control (fraction)", "setting": "KYSE450 cells [2]; KYSE450, concentration 2", "result": 0.4268}, {"measurement": "inhibition (1 minus fraction of control)", "setting": "KYSE450 cells [2]; KYSE450, concentration 2", "result": 0.5732}, {"measurement": "blank-corrected absorbance 490 nm relative to control (fraction)", "setting": "KYSE450 cells [2]; KYSE450, concentration 4", "result": 0.4691}, {"measurement": "inhibition (1 minus fraction of control)", "setting": "KYSE450 cells [2]; KYSE450, concentration 4", "result": 0.5309}, {"measurement": "blank-corrected absorbance 490 nm relative to control (fraction)", "setting": "KYSE450 cells [2]; KYSE450, concentration 8", "result": 0.05646}, {"measurement": "inhibition (1 minus fraction of control)", "setting": "KYSE450 cells [2]; KYSE450, concentration 8", "result": 0.9435}, {"measurement": "proportion of apoptotic cells", "setting": "KYSE450TR cells; 5 μM", "result": 32.12, "unit": "%"}, {"measurement": "proportion of apoptotic cells", "setting": "KYSE450TR cells; 10 μM", "result": 83.69, "unit": "%"}, {"measurement": "EGFR (Tyr1068) protein levels, 3l group compared with icotinib group", "setting": "[3]", "result": "no obvious difference"}, {"measurement": "ERK1/2 protein levels", "setting": "[3]; vs control", "result": "lower than the control at 0.5, 1, 2, 3, and 6 h"}, {"measurement": "P-EGFR (Tyr1068) protein levels", "setting": "[3]; vs control", "result": "lower than the control at 1 h"}, {"measurement": "P-EGFR (Tyr1086) protein levels", "setting": "[3]; vs control", "result": "lower than the control at 0.5, 1, 2, 3, and 6 h"}, {"measurement": "P-ERK1/2 (Thr202/Tyr204) protein levels", "setting": "[3]; vs control", "result": "lower than the control at 0.5, 1, 2, 3, and 6 h"}, {"measurement": "IC50", "setting": "KYSE70 cells; Homo sapiens, KYSE-70, MTT, 48 h, KYSE70, n = 5", "result": "4.25 ± 0.21", "unit": "µM"}, {"measurement": "blank-corrected absorbance 490 nm relative to control (fraction)", "setting": "KYSE70 cells; KYSE70, concentration 2.25", "result": 0.9298}, {"measurement": "inhibition (1 minus fraction of control)", "setting": "KYSE70 cells; KYSE70, concentration 2.25", "result": 0.07024}, {"measurement": "blank-corrected absorbance 490 nm relative to control (fraction)", "setting": "KYSE70 cells; KYSE70, concentration 4.5", "result": 0.4365}, {"measurement": "inhibition (1 minus fraction of control)", "setting": "KYSE70 cells; KYSE70, concentration 4.5", "result": 0.5635}, {"measurement": "blank-corrected absorbance 490 nm relative to control (fraction)", "setting": "KYSE70 cells; KYSE70, concentration 9", "result": 0.2659}, {"measurement": "inhibition (1 minus fraction of control)", "setting": "KYSE70 cells; KYSE70, concentration 9", "result": 0.7341}, {"measurement": "P-EGFR (Tyr1068) protein levels", "setting": "[4]", "result": "lower than the control at 1 and 2 h"}, {"measurement": "P-ERK1/2 (Thr202/Tyr204) protein levels", "setting": "[4]", "result": "lower than the control at 6 h"}, {"measurement": "IC50", "setting": "H1650TR cells", "result": 8.43, "unit": "µM"}, {"measurement": "IC50", "setting": "H1975OR cells", "result": 9.73, "unit": "µM"}]}
